Laboratory results as given in patent publication US5321039A, “Method of inducing a histamine agonist action on H2 receptors” (Societe Civile Bioprojet, priority 1990, dated 1994).

Legend:
histamine H3 receptor = conditions: EP-A-0 420 396; cited from earlier work
H3 receptor = target: T1, H3 receptor (Rattus norvegicus, UniProt Q9QYN8); test: inhibition of liberation and synthesis of endogenous histamine from depolarized brain sections (H3 agonism); type: cell-based; conditions: for potency relative to histamine (times more powerful): H3 agonist
T1 construct: liberation and synthesis of endogenous histamine from depolarized brain sections; from tissue; host or cells: brain sections (slices)
T1 sequence (Q9QYN8 whole entry): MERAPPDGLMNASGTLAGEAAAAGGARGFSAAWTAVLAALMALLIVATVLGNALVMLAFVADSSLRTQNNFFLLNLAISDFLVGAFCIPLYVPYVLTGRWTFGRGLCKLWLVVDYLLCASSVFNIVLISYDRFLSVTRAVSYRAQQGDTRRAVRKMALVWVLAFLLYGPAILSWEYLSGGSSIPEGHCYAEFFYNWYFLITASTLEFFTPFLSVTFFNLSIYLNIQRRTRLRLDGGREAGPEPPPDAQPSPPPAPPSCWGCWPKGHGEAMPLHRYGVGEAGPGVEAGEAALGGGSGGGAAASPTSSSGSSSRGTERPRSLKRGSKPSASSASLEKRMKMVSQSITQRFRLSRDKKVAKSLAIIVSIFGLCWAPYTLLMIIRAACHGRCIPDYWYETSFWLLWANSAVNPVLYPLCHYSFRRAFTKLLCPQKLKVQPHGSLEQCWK

[1] = system: histamine synthesis in the brain of rats; test: inhibition of histamine synthesis in vivo (brain, peripheral organs)
histamine H2 receptor = conditions: Sterk et al.; cited from earlier work
[2] = system: secretion of gastric acid which is stimulated by histamine; conditions: opposes action of histamine; Ganellin; cited from earlier work

SMILES | H3 agonist potency and selectivity in words (histamine H3 receptor) | type of agonism on the H3 receptor (H3 receptor) | potency relative to histamine (times more powerful) (H3 receptor) | concentration for H3 relative to that necessary for engagement of the H2 receptor (times lower) (H3 receptor; H3 versus H2) | concentration stimulating the H3 receptor (H3 receptor; depolarized brain sections) | crossing of the blood-brain barrier ([1]; inferred from brain effect at oral 3 mg/kg in rats) | inhibition of histamine synthesis in peripheral organs such as the lungs ([1]; peripheral organs, lungs) | inhibition of histamine synthesis in the brain ([1]; rats, oral dose of 3 mg/kg) | concentration stimulating the H2 receptor (histamine H2 receptor) | partial agonist efficacy at histamine H2 receptor (histamine H2 receptor) [%] | 50% inhibiting dose on rat gastric secretion [2] | EC50 (H3 receptor; read-out: EC50 as H3 agonist) [nM] | H3 agonist activity in vivo ([1]; in vivo test not specified)
N=C(N)SCCc1cnc[nH]1 [Compound I, S-[2-(4(5)-imidazolyl)-ethyl] isothiourea] | highly potent selective histamine H3 -agonists | full histamine agonist | 62 times | about 100,000 times | about 1 nanomolar | adequately crosses the blood-brain barrier | inhibits at a very low dose | maximum inhibition | about 0.1 mM | 50 | about 200 μmoles/kg | – | –
N=C(N)CCCc1c[nH]cn1 [Compound III, 4-(4(5)-imidazolyl) butyramidine] | highly potent selective histamine H3 -agonists | – | – | – | – | – | – | – | – | – | – | – | –
CN=C(N)SCCc1c[nH]cn1 [Compound II] | – | full and comparatively powerful | about 6 times | – | – | – | – | – | – | – | – | 10 | active in vivo
